In patent EP4567040A1, “CRYSTAL FORM OF FUSED TRICYCLIC DERIVATIVE AND PREPARATION METHOD” (Jiangsu Hengrui Pharmaceuticals Co., Ltd., priority 2022, dated 2024):

What was measured:
Assay type in all cases: physicochemical
[1] = Influencing factor stability study of crystal forms; conditions: for physical stability / chemical stability: 30-day influencing factor experiments; for chemical stability: high temperature and high humidity conditions
Description: Example 50. Influencing Factor Stability Study of Crystal Forms Free-state samples were spread out, left to stand in open flasks, and subjected to 30-day stability tests under light exposure (4500 Lux), high temperature (40 °C and 60 °C), and high humidity (RH 75% and RH 92.5%) conditions.

[2] = Long-term/accelerated stability of crystal forms; conditions: for Purity%: sealed in aluminum foil bag
Description: Free-state samples were sealed in aluminum foil bags and left to stand under 25 °C/60% RH and 40 °C/75% RH conditions to test their stability.

[3] = Hygroscopicity study of free-state crystal forms (DVS); conditions: for 0.0% RH-80.0% RH (hygroscopicity, mass change): DVS, 25 °C; for Crystal form: crystal form after DVS test
Description: Testing was performed using Surface Measurement Systems advantage 2, at 25 °C, with the humidity changing from 50% -95%-0%-95%-50%RH, in steps of 10%. The criterion was that each gradient mass change dM/dT is less than 0.002%, TMAX 360 min, two cycles.
Surface Measurement Systems intrinsic DVS was adopted. At 25 °C, the crystal forms were tested in a humidity range of 0%-95%, with increments of 10%. The criterion was that each gradient mass change dM/dT is less than 0.002%, TMAX 360 min, two cycles.

[4] = Light exposure (4500 Lux), 7 days, open flask
[5] = Light exposure (4500 Lux), 14 days, open flask
[6] = Light exposure (4500 Lux), 30 days, open flask
[7] = 25 °C/60% RH, after standing up to 6 months
[8] = 40 °C/75% RH, after standing up to 6 months
[9] = long-term accelerated conditions for 6 months

| physical stability [1] | Purity% ([1]; 40 °C, 7 days, open flask) | chemical stability [1] | Purity% ([2]; 25 °C/60% RH, 1 month) | Purity% ([2]; 25 °C/60% RH, 2 months) | Purity% ([2]; 25 °C/60% RH, 3 months) | Purity% ([2]; 25 °C/60% RH, 6 months) | Purity% ([2]; 25 °C/60% RH, 14 days) | Purity% ([2]; 25 °C/60% RH, Initial) | Crystal form [2, 7] | Purity% ([2]; 40 °C/75% RH, 1 month) | Purity% ([2]; 40 °C/75% RH, 2 months) | Purity% ([2]; 40 °C/75% RH, 3 months) | Purity% ([2]; 40 °C/75% RH, 6 months) | Purity% ([2]; 40 °C/75% RH, 14 days) | Purity% ([2]; 40 °C/75% RH, Initial) | Crystal form [2, 8] | 0.0% RH-80.0% RH (hygroscopicity, mass change) [3] | Crystal form [3] | SMILES | physical stability and chemical stability [2, 9] | further results |
| --- | --- | --- | --- | --- | --- | --- | --- | --- | --- | --- | --- | --- | --- | --- | --- | --- | --- | --- | --- | --- | --- |
| good physical stability | 99.9% | good chemical stability | 99.9% | 99.9% | 99.9% | 99.9% | 99.9% | 99.9% | No change | 99.9% | 99.9% | 99.9% | 99.9% | 99.9% | 99.9% | No change | 0.46% | No change | C[C@H]1COc2c(-c3nc(N[C@@H]4CCOC[C@H]4O)ncc3Cl)cc(F)c3nc(C(C)(C)O)n1c23 [Crystal form D, (3S,4R)-4-((5-chloro-4-((S)-8-fluoro-2-(2-hydroxypropan-2-yl)-3-methyl-3,4-dihydro-5-oxa-1,2a-diazaacenaphthylen-6-yl)pyrimidin-2-yl)amino)tetrahydro-2H-pyran-3-ol] | good physical stability and chemical stability | Purity% ([1]; 40 °C, 14 days, open flask): 99.9%; Purity% ([1]; 40 °C, 30 days, open flask): 99.9%; Purity% ([1]; 60 °C, 7 days, open flask): 99.9%; Purity% ([1]; 60 °C, 14 days, open flask): 99.9%; Purity% ([1]; 60 °C, 30 days, open flask): 99.9%; Purity% ([1]; 75% RH, 7 days, open flask): 99.9%; Purity% ([1]; 75% RH, 14 days, open flask): 99.9%; Purity% ([1]; 75% RH, 30 days, open flask): 99.9%; Purity% ([1]; 92.5% RH, 7 days, open flask): 99.9%; Purity% ([1]; 92.5% RH, 14 days, open flask): 99.9%; Purity% ([1]; 92.5% RH, 30 days, open flask): 99.9%; Purity% ([1]; Initial, 0 days): 99.9%; Purity% [1, 4]: 96.0%; Purity% [1, 5]: 94.6%; Purity% [1, 6]: 92.8% |
| good physical stability | 99.9% | good chemical stability | 99.9% | 99.9% | 99.9% | 99.9% | 99.9% | 99.9% | No change | 99.9% | 99.9% | 99.9% | 99.9% | 99.9% | 99.9% | No change | 3.45% | No change | C[C@H]1COc2c(-c3nc(N[C@@H]4CCOC[C@H]4O)ncc3Cl)cc(F)c3nc(C(C)(C)O)n1c23 [Crystal form E, (3S,4R)-4-((5-chloro-4-((S)-8-fluoro-2-(2-hydroxypropan-2-yl)-3-methyl-3,4-dihydro-5-oxa-1,2a-diazaacenaphthylen-6-yl)pyrimidin-2-yl)amino)tetrahydro-2H-pyran-3-ol] | good physical stability and chemical stability | Purity% ([1]; 40 °C, 14 days, open flask): 99.8%; Purity% ([1]; 40 °C, 30 days, open flask): 99.8%; Purity% ([1]; 60 °C, 7 days, open flask): 99.9%; Purity% ([1]; 60 °C, 14 days, open flask): 99.9%; Purity% ([1]; 60 °C, 30 days, open flask): 99.9%; Purity% ([1]; 75% RH, 7 days, open flask): 99.9%; Purity% ([1]; 75% RH, 14 days, open flask): 99.8%; Purity% ([1]; 75% RH, 30 days, open flask): 99.8%; Purity% ([1]; 92.5% RH, 7 days, open flask): 99.9%; Purity% ([1]; 92.5% RH, 14 days, open flask): 99.8%; Purity% ([1]; 92.5% RH, 30 days, open flask): 99.8%; Purity% ([1]; Initial, 0 days): 99.9%; Purity% [1, 4]: 99.6%; Purity% [1, 5]: 99.3%; Purity% [1, 6]: 98.7% |
| good physical stability | – | good chemical stability | 99.9% | 99.9% | 99.9% | 99.9% | 99.9% | 99.9% | No change | 99.9% | 99.9% | 99.9% | 99.9% | 99.9% | 99.9% | No change | 1.10% | No change | C[C@H]1COc2c(-c3nc(N[C@@H]4CCOC[C@H]4O)ncc3Cl)cc(F)c3nc(C(C)(C)O)n1c23 [Crystal form F, (3S,4R)-4-((5-chloro-4-((S)-8-fluoro-2-(2-hydroxypropan-2-yl)-3-methyl-3,4-dihydro-5-oxa-1,2a-diazaacenaphthylen-6-yl)pyrimidin-2-yl)amino)tetrahydro-2H-pyran-3-ol] | good physical stability and chemical stability | – |
| good physical stability | – | good chemical stability | 99.9% | 99.9% | 99.9% | 99.9% | 99.9% | 99.9% | No change | 99.9% | 99.9% | 99.9% | 99.9% | 99.9% | 99.9% | No change | 2.46% | No change | C[C@H]1COc2c(-c3nc(N[C@@H]4CCOC[C@H]4O)ncc3Cl)cc(F)c3nc(C(C)(C)O)n1c23 [Crystal form G, (3S,4R)-4-((5-chloro-4-((S)-8-fluoro-2-(2-hydroxypropan-2-yl)-3-methyl-3,4-dihydro-5-oxa-1,2a-diazaacenaphthylen-6-yl)pyrimidin-2-yl)amino)tetrahydro-2H-pyran-3-ol] | good physical stability and chemical stability | – |
| good physical stability | – | good chemical stability | 99.95% | 99.95% | 99.95% | – | 99.95% | 99.95% | – | 99.95% | 99.95% | 99.95% | – | 99.95% | 99.95% | – | 0.28% | No change | C[C@H]1COc2c(-c3nc(N[C@@H]4CCOC[C@H]4O)ncc3Cl)cc(F)c3nc(C(C)(C)O)n1c23 [Crystal form H, (3S,4R)-4-((5-chloro-4-((S)-8-fluoro-2-(2-hydroxypropan-2-yl)-3-methyl-3,4-dihydro-5-oxa-1,2a-diazaacenaphthylen-6-yl)pyrimidin-2-yl)amino)tetrahydro-2H-pyran-3-ol] | – | Crystal form ([2]; 25 °C/60% RH, after standing up to 3 months): No change; Crystal form ([2]; 40 °C/75% RH, after standing up to 3 months): No change; physical stability and chemical stability ([2]; long-term accelerated conditions for 3 months): good physical stability and chemical stability |
| good physical stability | – | good chemical stability | 99.0% | 98.9% | – | 98.8% | 99.0% | 99.0% | No change | 99.0% | 98.9% | – | 98.8% | 99.0% | 99.0% | Deliquescence | – | – | C[C@H]1COc2c(-c3nc(N[C@@H]4CCOC[C@H]4O)ncc3Cl)cc(F)c3nc(C(C)(C)O)n1c23 [Free-state amorphous form, (3S,4R)-4-((5-chloro-4-((S)-8-fluoro-2-(2-hydroxypropan-2-yl)-3-methyl-3,4-dihydro-5-oxa-1,2a-diazaacenaphthylen-6-yl)pyrimidin-2-yl)amino)tetrahydro-2H-pyran-3-ol] | – | Crystal form ([1]; 40 °C, 7 days, open flask): No change; Crystal form ([1]; 40 °C, 14 days, open flask): No change; Crystal form ([1]; 40 °C, 30 days, open flask): No change; Crystal form ([1]; 60 °C, 7 days, open flask): No change; Crystal form ([1]; 60 °C, 14 days, open flask): No change; Crystal form ([1]; 60 °C, 30 days, open flask): No change; Crystal form ([1]; 75% RH, 7 days, open flask): No change; Crystal form ([1]; 75% RH, 14 days, open flask): No change; Crystal form ([1]; 75% RH, 30 days, open flask): No change; Crystal form ([1]; 92.5% RH, 7 days, open flask): No change; Crystal form ([1]; 92.5% RH, 14 days, open flask): No change; Crystal form ([1]; 92.5% RH, 30 days, open flask): No change; Crystal form ([1]; Initial, 0 days): Free-state amorphous form; Crystal form [1, 4]: No change; Crystal form [1, 5]: No change; Crystal form [1, 6]: No change; deliquescence ([2]; accelerated conditions): deliquescence; physical stability and chemical stability ([2]; under other conditions (than those giving deliquescence)): good physical stability and chemical stability |
